Values quoted from earlier work as cited in patent US20240082217A1, “PROCESS FOR OBTAINING A PURIFIED PS[…] SOLUTION” (PSILO SCIENTIFIC LTD, priority 2020, published 2024).

Conditions: stated as a property of the alkaloid, freebase form; no measurement described

CN(C)CCc1c[nH]c2cccc(O)c12 [psilocin]
isoelectric point (pH): 8.47±0.25 pH
